Measured values reported in patent US20060286574A1 (priority 2005, published 2006).

Assays:
E. coli [1] = type: cell-based; conditions: for enhancement of the activity of ciprofloxacin: at 25 μM
K. pneumoniae = type: in vivo; conditions: mice; wild type vs ΔrecB K. pneumoniae; 0.064-15 mg/kg/day ciprofloxacin; 48 hour endpoint; FIG. 6
E. coli [2] = tested on: E. coli
E. coli ΔrecB strains = type: cell-based; conditions: putative ΔrecB transductants and parental ΔrecB strain
E. coli [3] = assay: Effect of gam expression on ciprofloxacin efficacy in E. coli; type: cell-based
P. aeruginosa = assay: Effect of gam expression on ciprofloxacin efficacy in P. aeruginosa; type: cell-based

Cn1c2ccccc2n2c3cnccc3c(=O)c(C#N)c12 [Formula IIc]
enhancement of the activity of ciprofloxacin (E. coli [1]): enhanced the activity of ciprofloxacin

Nc1ccc2noc3c2c1C(=O)c1ccccc1-3 [Formula Ia]
MIC shift in ciprofloxacin responsiveness (E. coli [1]): 10 ×

O=C(O)c1cn(C2CC2)c2cc(N3CCNCC3)c(F)cc2c1=O [ciprofloxacin]
reduction in CFU in thigh (log CFU/gm of thigh) (K. pneumoniae): significantly greater reduction in CFU for the recB mutants relative to the wild type strain
cells killed (E. coli [2]): 99%

CO[C@@]12[C@H](COC(N)=O)C3=C(C(=O)C(C)=C(N)C3=O)N1C[C@@H]1N[C@@H]12 [Mitomycin C]
Mitomycin C MIC of ΔrecB strains, lower compared to recB+ strains (E. coli ΔrecB strains): about 8 fold

Cn1c2ccccc2n2c3ncccc3c(=O)c(C#N)c12 [Formula IIb]
enhancement of the activity of ciprofloxacin (E. coli [1]): enhanced the activity of ciprofloxacin

B1: lambda gam: protein used by λ phage to inhibit E. coli RecB; overexpressed from an arabinose-inducible vector (protein, UniProt P03702 1-138, looked up)
Host-nuclease inhibitor …: MDINTETEIKQKHSLTPFPVFLISPAFRGRYFHSYFRSSAMNAYYIQDRLEAQSWARHYQQLAREEKEAELADDMEKGLPQHLFESLCIDHLQRHGASKKSITRAFDDDVEFQERMAEHIRYMVETIAHHQVDIDSEV
effect of lambda gam overexpression on ciprofloxacin sensitivity (E. coli [3]; strain lacking the RecB target (RTC0148) relative to empty vector strain (RTC0147)): no effect
decrease in the ciprofloxacin IC50 on overexpression of lambda gam (E. coli [3]; wild-type E. coli (RTC0142) and gyrA(S83L) (RTC0144) relative to empty vector controls (RTC0141, RTC0143)): 5-8 fold
effect of lambda gam overexpression on ciprofloxacin sensitivity (P. aeruginosa; strain lacking the RecB target (RTC1019) relative to empty vector strain (RTC1016)): no effect
decrease in the ciprofloxacin MIC on overexpression of lambda gam (P. aeruginosa; wild-type P. aeruginosa (RTC1017) and gyrA(S831) mutant (RTC1018) relative to empty vector controls (RTC1014, RTC1015)): 2-4 fold
